Laboratory results reported in patent publication US20040132095A1, “Method of selecting antimicrobial agent and method of using the same” (priority 2001, published 2004).

Legend:
[1] = system: Chaetomium elatum; experiment: Data base search for antimicrobial agent, filamentous fungus (Example 6); type: cell-based
[2] = system: slime; experiment: Monitoring demonstrators (slime testers) at paper machine of factory D (Example 3)
Experimental: Since the machine construction is similar, this machine would suffer from same trouble by occurrence of pink-colored slime after a prolonged operation. Therefore, monitoring of machine by prior practice was proceeded more […] the same time, the analysis of the microbial biota of white water same as in the above test method was performed at a more frequent interval, namely, at an interval of 7-14 days (with increase in the number of isolated strains to 48). […] On the other hand, white water devoid of DBNPA content was reserved by storing in a storage reservoir the white water taken from its supply line during a time interval discrepant from the DBNPA injection period, to preserve a reagent-free white water for the test.

[3] = system: slime; experiment: Laboratory torque type slime formation testing apparatus, artificial white water (Example 1); type: cell-based
From the text: A torque type slime formation testing apparatus was used, which is described in Japanese Patent Kokai Hei 9-75065 A. The testing apparatus is constructed from a stationary outer cylinder and a rotatable inner cylinder disposed concentrically with the outer cylinder leaving a free space therebetween for allowing flow of water therein while rotating the inner cylinder so as to permit to grow slime formed on the surface of the inner […]. To this testing apparatus, an artificial white water (containing 142 mg/liter of soluble starch and 11.6 mg/liter of ammonium sulfate and having a pH of 7.0) was supplied continuously at a temperature of 30° C. so as to maintain a residence time in the apparatus of 20 minutes, while adding thereto intermittently a slime control agent containing as the main component DBNPA (dibromonitrilopropionamide) three times a day each for a duration of 15 minutes at a contact concentration of 2.5 mg/liter. […] Each isolated strain was taken up on a platinum loop and was suspended in 0.4 ml of TE buffer solution (10 mM Tris-HCl, 1 mM EDTA, pH 8.0) retained allotted in a 1.5 ml microcentrifugal tube. Based on the above results, test experiment was carried out under the same experimental condition except that HPGHC was used as the slime control agent so as to maintain the concentration thereof in the system at 0.3 mg/liter. […] This HPGHC-treated slime collected at this occasion was tested by analysis of microbial biota thereof in the same manner as above, whereby Microbacterium sp. was not detected.

[4] = system: Rhizobium sp.; experiment: Data base search and sterilizing experiment (Example 9); type: cell-based
[5] = system: Microbacterium sp. (microbe number 6354); experiment: Data base search for antimicrobial agent, confirmed by sterilizing experiment, dominant microbe of Example 1 slime; type: cell-based
[6] = system: pink-colored bacterial slime / Deinococcus geothermalis; experiment: Slime control treatment at paper manufacturing factory D, white water circulation system (Example 2); settings: slime formed during long term slime control with DBNPA based agent
[7] = system: all the other isolated bacteria; experiment: Data base search / sterilizing experiment, other isolated strains of Example 1 slime; type: cell-based; settings: strains isolated from slime of Example 1
[8] = system: Acidovorax temperans; experiment: Data base search and sterilizing experiment (Example 9); type: cell-based
[9] = system: slime in CP tube; experiment: Slime control treatment of clear white water pit / CP line, paper machine Y (Example 11); settings: intermittent introduction into the clear white water pit twice a day
Experimental: In a paper machine Y (a daily throughput of 410 tons, slightly coated paper, pH 7.5) of a paper manufacturing factory B, occurrence of light brown-colored defects having sizes of about 5 mm diameter was recognized frequently since 11th day from the start of operation, caused to result in cessation of operation. The defect portions were cut out from the paper and three cut out pieces (about 8.1 mg) were cut into 2 mm squares, which were placed in a 2 ml microcentrifugal tube made of plastic material. To this tube, 1 ml of a DNA-extracting buffer solution (100 mM Tris-Cl, 100 mM EDTA-Na, 100 mM Na2HPO4 and 1.5 M NaCl (pH 8.0)) was added, followed by standing still at room temperature for 30 minutes to cause the paper pieces to be impregnated sufficiently with the solution.
From the above analysis results, it was assumed that the defect was caused by introduction of the slime formed in CP tube into the papermaking process course upon detachment or the like. In the CP line, clear white water obtained by treating white water through a polydiscfilter was used, which had hitherto not been subjected to a slime control treatment. Therefore, treatment was now applied by intermittent introduction of a slime control agent containing as the main component 2,2-dibromo-3-nitrilopropionamide into the clear white water pit twice a day.

[10] = system: Deinococcus geothermalis; experiment: Data base search and sterilizing experiment, Example 2; type: cell-based; settings: data base search, confirmed by sterilizing experiment
[11] = system: microbe belonging to a genus Microbacterium (microbe number 2401); experiment: Data base search for antimicrobial agent, dominant microbe of yellow-colored slime (Example 4); type: cell-based
[12] = system: Deinococcus geothermalis; experiment: Analysis of microbial biota of white water of the machine, factory D (Example 3); settings: DBNPA treatment
From the text: In the paper manufacturing factory D, another machine of a type similar to that used in Example 2 operating under conditions similar to those in Example 2 is installed adjacent to the machine of Example 2. In this machine, no occurrence of pink-colored […] recognized even at the occasion at which the pink-colored slime occurred in the machine of Example 2. Therefore, procedures corresponding to those in Example 1 were proceeded, wherein each 36 strains were isolated using agar medium and analysis of the microbial biota was carried out. Since a large number of strains are to be tested, each 16S rDNA obtained from each strain was treated by digestion with three kinds of restriction enzymes (BstUI, RsaI and HhaI) isolatedly to effect TRFLP analysis, in order to group preliminarily into classes of microbes of same reaction pattern, whereupon identification was effected based on the base sequence as identification parameter. It was recognized thereby that the occupation proportion of Deinococcus geothermalis in the isolated 36 strains was calculated to be only 2.7% (one strain). Since the machine construction is similar, this machine would suffer from same trouble by occurrence of pink-colored slime after a prolonged operation. […]

[13] = system: Deinococcus geothermalis; experiment: Data base search and sterilizing experiment (Example 9); type: cell-based
[14] = system: Gram-negative bacterium near-related to Riemerella; experiment: as above; type: cell-based
[15] = system: Sphingomonas; experiment: as above; type: cell-based
[16] = system: Deinococcus geothermalis; experiment: Origin treatment of wet broke chest in paper manufacturing process, Deinococcus geothermalis among 48 isolated strains (Example 9)
Experimental: (§1) Samples were collected at various locations in the paper manufacturing process courses and, for each of them, total microbe cell count was measured by microscope direct count method after staining with DAPI, whereupon 48 strains were isolated by agar plate culture to determine the proportion of existence of Deinococcus geothermalis among the 48 strains based on the base sequence of 16S rDNA. Based on the results of the search for slime conrol agent, the treatment scheme was revised to the operation in which a slime control agent containing HPGHC as the effective component is added as the origin treating agent to the wet broke chest three times a day each at a dose rate of 25 milligrams per liter of the retained liquor (chest capacity), while supplying the white water circulation system with a slime control agent containing DBNPA as the effective component in the conventional manner. At the occasion of the second shut down after the revision of the treatment scheme and at an occasion directly before it, samples were collected at various locations in the paper manufacturing process courses, for which total microbe cell count and the proportion of existence of Deinococcus geothermalis were determined in the same way as the former practice. It was found thereby that the total microbe counts were unchanged and within the range of ordinary fluctuation, but Deinococcus geothermalis became undetectable.

[17] = system: total microbe cells / slime; experiment: Origin treatment of wet broke chest in paper manufacturing process, total cell count and slime deposition (Example 9)
Experimental: as §1

[18] = system: Ralstonia eutropha; type: cell-based; settings: data base search
[19] = DBNPA 2 mg/l or even lower, contact time 30 minutes
[20] = after HPGHC origin treatment plus DBNPA
[21] = after HPGHC origin treatment plus DBNPA, Clear white water in clear white water pit
[22] = after HPGHC origin treatment plus DBNPA, Dry broke chest
[23] = after HPGHC origin treatment plus DBNPA, Wet broke chest
[24] = after HPGHC origin treatment plus DBNPA, White water in white water silo
[25] = second shut down after revision of the treatment scheme (HPGHC to wet broke chest plus DBNPA)

Q: With `O=C(CBr)OCC=CCOC(=O)CBr` [BBAB, 1,4-bis-(bromoacetoxy)-2-butene] as the molecule, how does the “susceptibility of Chaetomium elatum” value [1] read?
A: non-susceptible

Q: Which results are given for `N#CC(Br)(Br)C(N)=O` [DBNPA, 2,2-dibromo-3-nitrilopropionamide]?
A: sign of growth of slime in demonstrator ([2]; fifth test cycle, 47th day, No. 3 demonstrator inorganic bromine compound, No. 1 and No. 2 demonstrators DBNPA): sign of growth of slime was recognized; deposited amount of slime in No. 2 demonstrator ([2]; simulator supplied with DBNPA-containing agent, after the change of the machine agent): increased gradually; occurrence of pink-colored slime in No. 2 demonstrator ([2]; simulator supplied with DBNPA-containing agent, day after the change of the antimicrobial agent): visually recognized on the 14th day; slime layer thickness ([3]; DBNPA 2.5 mg/liter contact concentration, three times a day for 15 minutes, 12 days, pH 7.0, 30° C.): 119 μm; living microbe cells extinct [4, 19]: 99%; susceptibility of Rhizobium Sp. ([4]; data base search): susceptible; resistance of Microbacterium sp. to the agent ([5]; data base search, confirmed by sterilizing experiment): resistance; susceptibility of Chaetomium elatum [1]: non-susceptible; occupation proportion of Deinococcus geothermalis in the entire microbe population [6]: 46%; susceptibility of all other isolated bacterium strains [7]: susceptible; living microbe cells extinct [8, 19]: 99%; susceptibility of Acidovorax temperans ([8]; data base search): susceptible; occurrence of defect on paper [9]: removed; occurrence of slime formation in the CP tube [9]: decreased remarkably; resistance of Deinococcus geothermalis [10]: resistant; resistance of dominant microbe (microbe number 2401) [11]: resistance; occupation proportion of Deinococcus geothermalis ([12]; fifth test cycle on the 47th day, 6 of 48 strains): 12.5%; occupation proportion of Deinococcus geothermalis ([12]; up to the fourth test cycles, 48 strains): 2-4%; sterilization of Deinococcus geothermalis ([13]; DBNPA 30 mg/l for 30 minutes): completely not sterilized; resistance of Deinococcus geothermalis ([13]; data base search): resistant; living microbe cells extinct [14, 19]: 99%; susceptibility of Gram-negative bacterium near-related to Riemerella ([14]; data base search): susceptible; living microbe cells extinct [15, 19]: 99%; susceptibility of Shingomonas ([15]; data base search): susceptible

Q: Which “Microbacterium sp. in treated slime (analysis of microbial biota)” value ([3]; HPGHC 0.3 mg/liter) does the source give for `O=C(C(Cl)=NO)c1ccc(O)cc1` [HPGHC, 2-(p-hydroxyphenyl)glyoxylohydroximoyl chloride] here?
A: not detected

Q: And the “amount of cling substance” value ([3]; HPGHC 0.3 mg/liter)?
A: remarkably decreased

Q: And the slime thickness ([3]; HPGHC maintained at 0.3 mg/liter in the system, same test period (12 days))?
A: 3 μm

Q: And the minimum effective concentration ([5]; from data base for search for antimicrobial agent)?
A: 0.2 mg/L

Q: And the “Deinococcus geothermalis in cling substance from the suction box” value [16, 20]?
A: no Deinococcus geothermalis detected

Q: What about the “Number of strains of Deinococcus geothermal is (number of colonies among 48 strains)” value (shortened to “Number … (number of colonies among 48 strains)”) [16, 21] of the same molecule?
A: 0

Q: What about the “Number … (number of colonies among 48 strains)” value [16, 22] of the same molecule?
A: 0

Q: What about the “Number … (number of colonies among 48 strains)” value [16, 23] of the same molecule?
A: 0

Q: And the “Number … (number of colonies among 48 strains)” value [16, 24]?
A: 0

Q: And the “Deinococcus geothermalis in samples from process courses” value [16, 25]?
A: undetectable

Q: And the “susceptibility of all other isolated bacterium strains” value [7]?
A: susceptible

Q: What about the “amount of deposition of slime” value ([17]; HPGHC 25 mg per liter to wet broke chest three times a day plus DBNPA to white water circulation system) of the same molecule?
A: reduced considerably

Q: And the “total microbe cell count in cling substance from the suction box” value [17, 20]?
A: 3.5×10^9 cells per one gram of dry substance

Q: And the Total cell count [17, 21]?
A: 3.1 × 10^7 cells/ml

Q: What about the Total cell count [17, 22] of the same molecule?
A: 6.0 × 10^7 cells/ml

Q: And the Total cell count [17, 23]?
A: 5.3 × 10^7 cells/ml

Q: What about the Total cell count [17, 24] of the same molecule?
A: 4.8 × 10^7 cells/ml

Q: And the total microbe counts [17, 25]?
A: unchanged

Q: And the “sterilization of Deinococcus geothermalis” value ([13]; HPGHC system internal concentration 20 mg/l for 20 minutes, data base)?
A: sterilized

Q: For `OCl` [sodium hypochlorite], which “ranking of effectiveness for registered Ralstonia eutropha” value [18] is on record?
A: most effective
